The values that follow are results of earlier work, collected in patent US12091679B2, “Storage method and banking system of NT cell” (SUNGKWANG MEDICAL FOUNDATION, priority 2015, dated 2024).

SMILES strings stand for the structures.

The subject of this series is various animal cancer models.
In the case of `CC(C)N(C[C@H]1O[C@@H](n2cnc3c(N)ncnc32)[C@H](O)[C@@H]1O)[C@H]1C[C@@H](CCc2nc3cc(C(C)(C)C)ccc3[nH]2)C1` [EPZ5676], the anticancer activity result is “show anticancer activity”.
`Cc1cc(C)c(CNC(=O)c2cc(-c3ccc(CN4CCOCC4)cc3)cc3c2cnn3C2CCCC2)c(=O)[nH]1` [EPZ005687]: the anticancer activity result was “show anticancer activity”.
Turning to `CC[C@H](C)n1cc(C)c2c(C(=O)NCc3c(C)cc(C)[nH]c3=O)cc(-c3ccc(N4CCNCC4)nc3)cc21` [GSK126], the anticancer activity entry is recorded as “show anticancer activity”.
